Data published in patent US20250129334A1, “LINEAGE SPECIFICATION DURING STEM CELL TRANSITION” (Amniotics AB, priority 2021, published 2025).

Assays:
iPSC-CD34+ = assay: NK cell cytotoxic degranulation (CD107) with or without K562 co-culture; type: cell-based, human; conditions: absence of K562; DCA 10 mM, CP 2.5 μM, cholesterol 0.5x
Source text: NK cell anti-tumour activity can occur via cytotoxic degranulation. CD107 is a marker that is present in the cytotoxic vesicles of NK cells, and so is not expressed on the cell surface of inactivated NK cells. However, upon NK cell activation and degranulation, the CD107 target becomes detectable on the cell surface. Therefore, the level of CD107 detected on NK cells correlates with cytotoxic degranulation. In this assay, several exemplary metabolic regulators were used to assess cytotoxic degranulation in a co-culture assay with K562 cells (an exemplary cancer cell model). As a negative control, iPSC-CD34^+ untreated with a metabolic regulator were used, in which a basal level of 3.27% of degranulated NK cells (CD3^−CD56^+CD16^+CD107^+ cells) were observed (FIG. 16A, top panel).

HE cells = assay: Transplantation of treated HE cells into irradiated NSG mice; type: in vivo
Protocol: Sorted human HE cells (350,000) were mixed with OP9-DL1 stroma (60,000) and subcultured for 3 days with or without DCA (3 mM) on Matrigel (16 μg/cm^2, Corning)-coated 12-well plates in HE medium (32). Between 100,000-150,000 cells from control or DCA samples were transplanted into sub lethally irradiated (300 cGy) 8-week-old female NOD/Cg-Prkdc^scid Il2^tm1Wj1/SzJ mice (NSG, The Jackson Laboratory) together with 20,000 whole BM support cells from C57BV6.SJL mice (CD45.1^+/CD45.2^+, in house breeding). Cells were transplanted in single cell solution in 250 μL PBS with 2% FBS through intravenous tail vein injection. Drinking water of transplanted NSG mice was supplemented with ciprofloxacin (125 mg/L, HEXAL) for 3 weeks after transplantation to prevent infection. Mice were housed in a controlled environment with 12-hour light-dark cycles with chow and water provided ad libitim. Experiments and animal care were performed in accordance with the Lund University Animal Ethical Committee.
Peripheral blood (PB) was collected from the tail vein into EDTA-coated microvette tubes (Sarstedt, Cat #20.1341.100). […]
Bone marrow was analyzed at the 12-week transplantation endpoint. […]

O=C(O)C(Cl)Cl [DCA, dichloroacetate]
degranulated NK cells (CD3-CD56+CD16+CD107+ cells) (iPSC-CD34+): 13.8 % of the population
increase in degranulated NK cells vs untreated control (iPSC-CD34+): more than 4 fold
increase of CLP (common lymphoid progenitor) (HE cells; FIG. 3, n, BM week 12): 3 fold
human CD45+ cells in the peripheral blood (HE cells; week 8, 3-day DCA-treated HE cells): around 1%
